Legend:
LPS-treated mice [1] = assay: LPS-induced loss of nigral TH-IR with CB1 agonist/antagonist and HM; type: in vivo
Description: Mortality was observed by 2 weeks after bilateral LPS intrastriatal injection (one side: 2 μg×2).

LPS-treated mice [2] = assay: LPS-induced mortality with CB1 agonist/antagonist and HM; type: in vivo
MPTP-treated mice [3] = assay: MPTP-induced loss of nigral TH-IR with CB1 agonist/antagonist and HM; type: in vivo; conditions: combined with HM 20 mg/kg i.p.
Description: CB1 agonist or antagonist was administered 45 min before every MPTP, while HM was injected 30 min before every MPTP (20 mg/kg, i.p./day×7). Compounds were administered for 7 days post-final MPTP.

MA-treated mice [4] = assay: MA-induced loss of nigral TH-IR with CB1 agonist/antagonist and HM
Description: Compounds were administered 3 days before and after MA injection.

MA-treated mice [5] = assay: MA-induced behavioural sensitization
Description: Morphinans (20 mg/kg, i.p.) were administered last 3 days of wash-out period.

cocaine-treated mice [6] = assay: Cocaine-induced behavioural sensitization with CB1 modulation
MA-treated mice [7] = assay: MA-induced conditioned place preference with CB1 modulation
Description: (§1) The control mice received an i.p. injection of saline just before entering the white or black compartment. Cocaine or MA dissolved in saline was administered immediately before the mice were placed in the white compartment. To test the effect of cocaine alone or MA alone or in combination with exemplified morphinans (DM, HM, AM, CM or DF), each morphinan was administered 2 hr before cocaine or saline injection.
(§2) On day 1, the mice were pre-exposed to the test apparatus for 5 min. The guillotine doors were raised and the mice were allowed to move freely between the two compartments. On day 2, the time each mouse spent in each compartment was recorded for 15 min. On days 3, 5, 7, 9, 11, and 13, the mice were injected with cocaine before being confined to the white compartment, the non-preferred side, for 20 min. On days 4, 6, 8, 10, and 12, the mice were injected with saline before being confined to the black compartment, the preferred side, for 20 min. On day 14, the guillotine doors were raised. The mice were initially placed in the tunnel and the time spent by the mice in the two compartments was recorded for 15 min. The scores were calculated from the differences in the time spent in the white compartment in the testing and pre-testing phases.

cocaine-treated mice [8] = assay: Cocaine-induced conditioned place preference with CB1 modulation
Description: as §1, §2

LPS-treated mice [9] = assay: LPS model, HM versus L-dopa/carbidopa: microglia F4/80-like immunoreactivity; type: in vivo; conditions: substantia nigra
MA-treated mice [10] = assay: MA model, HM versus L-dopa/carbidopa: hyperthermia; type: in vivo; conditions: MA 7.5 mg/kg i.p. x 4
Description: FIGS. 31A-31B show effect of drugs on the MA-induced hyperthermia. Mice received MA injections as 2 hrs' time interval under the ambient temperature of 22.0±0.5° C.
Experimental paradigm for MA with or without compounds is in FIG. 30. Treatment with MA (7.5 mg/kg, i.p.×four times as two hour time interval) produces hyperthermia (P<0.01).

MA-treated mice [11] = assay: MA model, HM versus L-dopa/carbidopa: locomotor activity; type: in vivo; conditions: 3 days after MA
MPTP-treated mice [12] = assay: MPTP model, HM versus L-dopa/carbidopa: locomotor activity; type: in vivo; conditions: HM 24 mg/kg i.p., L-dopa 200 mg/kg p.o., carbidopa 20 mg/kg p.o., 2 weeks before MPTP
Description: FIGS. 20A-20B show effects of carbidopa, L-dopa, carbidopa+L-dopa and HM on the changes in locomotor activity (A) and locomotor pattern (B) induced by MPTP in mice.
A prescription drug for treating Parkinsonian patients is L-dopa or carbidopa plus L-dopa. Thus, the neuroprotective effects of HM was compared with L-dopa, carbidopa, or carbidopa plus L-dopa. […] Locomotor activity was examined for 60 min after final treatment of MPTP. Mice were sacrificed at 24 h after final MPTP administration. HM (24 mg/kg, i.p.), L-dopa (200 mg/kg, p.o.) with or without carbidopa (20 mg/kg, p.o.) was administered for 2 weeks before first MPTP challenge.

LPS-treated mice [13] = assay: LPS model, HM versus L-dopa/carbidopa: mortality; type: in vivo; conditions: intrastriatal LPS 2 μg x 4/head; 2 weeks
Description: Mortality was observed by 2 weeks after LPS injection. *P<0.01 vs. Saline+LPS (x^2-test).
The neuroprotective effect of HM was compared with L-dopa, carbidopa, or carbidopa plus L-dopa in response to dopaminergic damage induced by LPS. Intrastriatal injection of LPS (2 μg×4/head) produced high mortality (ten animals died out of twelve animals in the 2 weeks after LPS administration).

LPS-treated mice [14] = assay: LPS model, HM versus L-dopa/carbidopa: locomotor activity; type: in vivo; conditions: 3 weeks after LPS
Description: Locomotor activity was examined for 60 min at 3 weeks after LPS treatment. LPS-induced significant reduction (P<0.01 vs. saline treatment) in locomotor activity was attenuated by L-dopa (P<0.05), carbidopa+L-dopa (P<0.05) or HM (P<0.01) (FIGS. 24 and 25).

LPS-treated mice [15] = assay: LPS model, HM versus L-dopa/carbidopa: nigral TH-IR; conditions: mouse, in vivo
Text: FIG. 27 show effects of carbidopa, L-dopa, carbidopa+L-dopa and HM on the nigral tyrosine hydroxylase-like immunoreactivity (TH-IR) of the mice treated with LPS.

CCCCC/C=C\C/C=C\C/C=C\C/C=C\CCCC(=O)NCCCl [ACEA, arachidonyl-2-chloroethylamide]
effect on LPS-induced loss in TH-IR when combined with HM / on HM's effect (LPS-treated mice [1]; combined with HM): counteracted HM's protective effect
effect on LPS-induced reduction in nigral TH-IR (LPS-treated mice [1]; given alone): did not alter LPS-induced reduction in TH-IR
effect on HM-induced protective (anti-mortal) effect (LPS-treated mice [2]; combined with HM 20 mg/kg): reversed HM-induced protective (anti-mortal) effect
effect on LPS-induced mortality (LPS-treated mice [2]; given alone: HM 20, ACEA 2, AM-251 0.3 mg/kg, 2 weeks after bilateral intrastriatal LPS): Neither AM-251 nor ACEA significantly changed LPS-induced mortality
effect on MPTP-induced loss in TH-IR when combined with HM / on HM's action (MPTP-treated mice [3]): counteracted HM's neuroprotective action
effect on MA-induced reduction in TH-IR when combined with HM / on HM's effect (MA-treated mice [4]; combined with HM 20 mg/kg): reversed HM's protective effect
effect on MA-induced reduction in nigral TH-IR (MA-treated mice [4]; given alone): did not alter MA-induced reduction in TH-IR
behavioural effects of the compound itself (MA-treated mice [5]; AM 251 0.3, ACEA 2, HM 20 mg/kg, no MA (Ex. 3.14)): Neither saline-, AM 251 (0.3 mg/kg)-, ACEA (2 mg/kg)-treated nor HM (20 mg/kg)-treated animals showed any behavioural effects
effect on MA-induced behavioural sensitization (CB1 modulation study) (MA-treated mice [5]; MA 1 mg/kg i.p./day x 7, challenge one week later (Ex. 3.14)): Neither ACEA nor AM 251 influenced behavioural sensitization by cocaine
effect on HM's effect on MA-induced sensitization (MA-treated mice [5]; combined with HM): significantly reversed HM's effect
behavioural effects of the compound itself (cocaine-treated mice [6]; AM 251 0.3, ACEA 2, HM 20 mg/kg, no cocaine): Neither saline-, AM 251 (0.3 mg/kg)-, ACEA (2 mg/kg)-treated nor HM (20 mg/kg)-treated animals showed any specific behavioural effects
effect on cocaine-induced behavioural sensitization (cocaine-treated mice [6]; cocaine 10 mg/kg/day i.p. x 7, challenge one month later): Neither ACEA nor AM 251 alter behavioural sensitization by cocaine
effect on HM's effect in response to cocaine-induced sensitization (cocaine-treated mice [6]; combined with HM): Neither ACEA nor AM 251 significantly alter HM's effect
CPP response of the compound itself (MA-treated mice [7]; AM 251 0.3, HM 20, ACEA 2 mg/kg i.p., no MA): showed CPP effects
effect on HM's effect in response to MA-induced CPP (MA-treated mice [7]; combined with HM): significantly counteracted
effect on MA-induced CPP (MA-treated mice [7]; mouse, in vivo): did not alter CPP effects by MA
CPP response of the compound itself (cocaine-treated mice [8]; AM 251 0.3, HM 20, ACEA 2 mg/kg, no cocaine): showed CPP effects
effect on cocaine-induced CPP (cocaine-treated mice [8]; cocaine 10 mg/kg): did not alter CPP effects by cocaine
effect on HM's effect in response to cocaine-induced CPP (cocaine-treated mice [8]; combined with HM 20 mg/kg): appears to counteract the cocaine-induced CPP

N[C@@H](Cc1ccc(O)c(O)c1)C(=O)O [L-dopa]
effect on LPS-induced increase in F4/80-like immunoreactivity (microglia) (LPS-treated mice [9]): significantly attenuated
effect on MA-induced hyperthermia (MA-treated mice [10]): significantly attenenuated
effect on MA-induced reduction in locomotor activity (MA-treated mice [11]): significantly enhanced
effect on MPTP-induced decrease in locomotor activity (MPTP-treated mice [12]): appeared to increase
effect on mortality induced by LPS (LPS-treated mice [13]): appears to attenuate mortality induced by LPS
effect on LPS-induced reduction in locomotor activity (LPS-treated mice [14]): attenuated
effect on LPS-induced loss in nigral TH-IR (LPS-treated mice [15]): significantly attenuated
